What was measured:
awake Wistar rats = assay: Respiration in normoxia and hypoxia in the awake rat (plethysmographic chamber); assay type: in vivo; details: for minute lung ventilation after administration of haloperidol and N-oleoyl-dopamine: haloperidol 0.9 mg/kg i.p. prior to N-oleoyl-dopamine 40 mg/kg i.p.
Protocol: The study was performed in awake Wistar rats in a computerized plethysmographic chamber for small rodents. Respiratory frequency, tidal volume and pulmonary ventilation were measured. The experimental protocol included recordings in normoxia (breathing with atmospheric air), two levels of hypoxic stimulus (8% and 12% O2 in N2), intraperitoneal (i.p.) administration of N-oleoyl-dopamine (in a dose of 40 mg/kg) and repeated recordings for both normoxic and hypoxic states. Additionally, further experiments with the dopamine receptor antagonist haloperidol (in a dose of 0.9 mg/kg, i.p.) were performed. In those experiments, haloperidol was administered prior to N-oleoyl-dopamine and the recordings according the above-mentioned protocol were repeated.
The study was performed in awake Wistar rats in a computerized plethysmographic chamber for small rodents. Respiratory frequency, tidal volume and pulmonary ventilation were measured. The experimental protocol included recordings for normoxia (breathing with atmospheric air), for two levels of hypoxic stimulus (8% and 12% O2 in N2), intraperitoneal (i.p.) administration of 3′-O-methyl-N-oleoyl-dopamine (in a dose of 40 mg/kg), and then repeated recordings for both normoxic and hypoxic states.

[1] = tested on: rat model of Parkinson's disease
Protocol: Symptoms of the Parkinson's disease, particularly muscle rigidity during flexion and extension movements in the ankle joint, were induced with reserpine (2.5 mg/kg, i.p.) and a-methyl-tyrosine (α-MT, 250 mg/kg, i.p.) administered at a 16-h interval. Afterwards, 3′-O-methyl-N-oleoyl-dopamine (O-Me-OLDA) was administered at a dose of 10 mg/kg and the muscular tone was measured using electromyographic (EMG) techniques. The control groups consisted of a) only vehiculum-treated animals in which no symptoms of Parkinson's disease were induced (control), b) animals who received only 3′-O-methyl-N-oleoyl-dopamine (O-Me-OLDA) and c) animals in which symptoms of Parkinson's disease were induced (reserpine+α-MT), but no other treatment was introduced.
This method is a pharmacological tool for modeling the typical, dopamine-deficiency-related brain symptoms of Parkinson's disease in rats.

[2] = tested on: anesthetized, paralyzed and artificially ventilated Wistar rats; assay: Respiratory response to hypoxia in the anesthetized rat (integrated phrenic nerve activity); assay type: in vivo
Protocol: The study was performed in anesthetized, paralyzed and artificially ventilated Wistar rats. During the experiments, the integrated activity of the phrenic nerve was recorded. This activity reflects the frequency and tidal volume; their product represents the index of minute lung ventilation. The experimental protocol consisted of control recordings for two levels of the hypoxic stimulus: 14% and 11% O2 in N2. Afterwards, N-oleoyl-dopamine in a dose of 20 mg/kg was given and the recordings were repeated. Additionally, experiments with two dopamine receptor antagonists were performed: first, with the penetrating through the blood-brain barrier D2 dopamine receptor antagonist haloperidol and second, with the non-penetrating through the blood-brain-barrier domperidone. In these studies, after the control recordings, haloperidol (in a dose of 3 mg/kg) or domperidone (in a dose of 0.3 mg/kg) were administered and the recordings repeated. Then, N-oleoyl-dopamine was given and the recordings were repeated.

[3] = after injection into the carotid artery; cited from earlier work
[4] = tested on: membrane system of the rat brain; assay: Binding to the rat brain membrane system after intraperitoneal administration (TLC of brain lipids); assay type: in vivo, Wistar rats; details: 20 mg/kg intraperitoneal
Protocol: N-oleoyl-dopamine was administered to Wistar rats at a dose of 20 mg/kg. After 1, 2, 3 or 24 hours the rat was sacrificed and the brain was resected. From the tissue, the whole lipid fraction, containing all lipids of the brain and the membrane fraction of the rat brain were obtained. Total lipids were obtained by homogenization of the brain in a mixture of chloroform and methanol 2:1 followed by an extraction of the water-soluble fractions and evaporation of the solvent. The membrane phase was obtained according to Xu et al. (Xu, 1998) and extracted with chloroform to obtain membrane lipids. All obtained samples were analyzed by the thin layer chromatography TLC on silica gel plates 60 using a mixture of chloroform and methanol 95:5 as the mobile phase and N-oleoyl-dopamine as the standard. The Retention Factor (Rf) for the N-oleoyl-dopamine standard was equal to 0.24-0.26. At the same level (the same Rf=0.24-0.29) there were bands corresponding to N-oleoyl-dopamine in the biological samples, that is after systemic N-oleoyl-dopamine injection, but not in the control samples obtained with no N-oleoyl-dopamine injection.

rat = details: cited from earlier work
[5] = molecular target: T1, catechol-O-methyltransferase (Homo sapiens, UniProt P21964); assay: O-methylation by catechol-O-methyltransferase in vitro; assay type: in vitro ADME; details: PBS pH=8, 10 mM magnesium ions, S-adenosyl-L-methionine, one hour at 37° C.
T1 sequence (P21964 1-271): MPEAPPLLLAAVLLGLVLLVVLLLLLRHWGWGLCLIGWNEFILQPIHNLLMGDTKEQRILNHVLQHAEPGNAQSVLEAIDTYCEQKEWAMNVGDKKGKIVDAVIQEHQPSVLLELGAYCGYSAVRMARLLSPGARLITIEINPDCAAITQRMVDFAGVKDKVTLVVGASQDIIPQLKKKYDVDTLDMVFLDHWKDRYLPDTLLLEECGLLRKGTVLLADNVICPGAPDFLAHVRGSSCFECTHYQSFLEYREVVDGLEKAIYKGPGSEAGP
Protocol: N-oleoyl-dopamine underwent the reaction of methylation with the catechol-O-methyltransferase in PBS buffer pH=8 with 10 mM magnesium ions as the co-factor and S-adenosyl-L-methionine as the donor of methyl groups. The reaction was conducted for one hour at 37° C. After the termination of the reaction, the reaction mixture was extracted with chloroform to obtain an organic and an aqueous phase. Both phases were analyzed using UV/VIS spectrophotometry and high performance liquid chromatography with mass detection (HPLC/MS). It was shown that the organic phase contained both N-oleoyl-dopamine and 3′-O-methyl-N-oleoyl-dopamine (the substrate and the product of the reaction, respectively), and the aqueous phase S-adenosyl-L-methionine and its demethylated derivative, S-adenosyl-L-homocystein (the substrate and the product of the reaction, respectively). The obtained results were additionally confirmed with the mass spectrometry (MS).

[6] = N-oleoyl-dopamine given after domperidone 0.3 mg/kg
[7] = N-oleoyl-dopamine given after haloperidol 3 mg/kg

| penetration into the brain tissue [4] | O-methylation by catechol-O-methyltransferase [5] | SMILES | peak respiratory response after administration (awake Wistar rats; 8% hypoxia, 40 mg/kg i.p.) [ml/min/kg body weight] | resting ventilation during breathing with atmospheric oxygen after administration (awake Wistar rats; normoxia, 40 mg/kg i.p.) [ml/min/kg body weight] | level of muscle tone elevated by reserpine (force needed for flexion and extension of the ankle joint) ([1]; 10 mg/kg, FIG. 1) | muscle rigidity in rats showing symptoms of Parkinson's disease ([1]; reserpine 2.5 mg/kg i.p. + α-MT 250 mg/kg i.p., compound 10 mg/kg) | respiration in the second inhibitory phase of the hypoxic response ([2]; drug alone) | minute lung ventilation after administration of haloperidol and N-oleoyl-dopamine (awake Wistar rats; 8% hypoxia) [ml/min/kg body weight] | peak respiratory response after administration (awake Wistar rats; 12% hypoxia, 40 mg/kg i.p.) [ml/min/kg body weight] | minute lung ventilation after administration of haloperidol and N-oleoyl-dopamine (awake Wistar rats; 12% hypoxia) [ml/min/kg body weight] | peak respiratory response after N-oleoyl-dopamine under blockade of the dopaminergic system (awake Wistar rats; haloperidol 0.9 mg/kg i.p. prior to N-oleoyl-dopamine) | ability to penetrate into the brain [3] | respiration in the inhibitory phase [2, 6] | response to hypoxia in the stimulatory phase [2, 6] | respiratory response in the first stimulatory phase [2, 7] | respiratory response in the second inhibitory phase [2, 7] | locomotive activity (rat) |
| --- | --- | --- | --- | --- | --- | --- | --- | --- | --- | --- | --- | --- | --- | --- | --- | --- | --- |
|  |  | CCCCCCCC/C=C\CCCCCCCC(=O)NCCc1ccc(O)c(OC)c1 [3′-O-methyl-N-oleoyl-dopamine] | 1939±255 | 779.7±148.7 | decreases nearly down to the control level | abolished muscle rigidity |  |  |  |  |  |  |  |  |  |  |  |
|  |  | O=C(CCCN1CCC(O)(c2ccc(Cl)cc2)CC1)c1ccc(F)cc1 [haloperidol, reference compound] |  |  |  |  | diminished the respiration |  |  |  |  |  |  |  |  |  |  |
| penetrates | undergoes the O-methylation | CCCCCCCC/C=C\CCCCCCCC(=O)NCCc1ccc(O)c(O)c1 [N-oleoyl-dopamine] | 1338.3±49.5 |  |  |  |  | 1947.3±66.5 | 856.6±73.7 | 1484.0±92.3 | only a slight reduction | ability to penetrate into the brain | still diminished the respiration | did not change the response to hypoxia | did not restore the respiratory response | still diminished it | increases the locomotive activity |

From patent US8697898B2, “Medical application of lipid derivatives of dopamine and the methods of their production” (Instytut Medycyny Doswiadczalnej i Klinicznej im. M. …, priority 2011, dated 2014)
